Data reported in US7872018B2, “Compounds and methods for kinase modulation, and indications therefor” (Plexxikon, Inc., priority 2006, dated 2011).

What was measured:
B-Raf V600E = B-Raf V600E (Homo sapiens, UniProt P15056, V600E); test: B-Raf V600E kinase activity assay; format: biochemical; settings: under the test conditions employed; read-out: IC50 toward kinase B-Raf V600E
Fms = target: T1, Fms (Homo sapiens, UniProt P07333); test: Fms biochemical assay (AlphaScreen or 33P-ATP); settings: under the test conditions employed; read-out: IC50 toward kinase Fms
T1 construct: purchased Upstate Biotech 14-551
Source text: Each sample was at 5% DMSO.

Kit = target: T2, Kit (Homo sapiens, UniProt P10721); test: c-kit biochemical assay (AlphaScreen or 33P-ATP); settings: under the test conditions employed; read-out: IC50 toward kinase Kit
T2 construct: P1332.N6 BI PTP KIT M552-K948-X COD; made in house; host or cells: E. coli BL21(DE3)RIL, co-expressed with PTP1B
Description: C-kit kinase was at 1 ng per sample.
The c-kit enzyme used in the above assay was either obtained from Cell Signaling Technology (Cat. #7754) or was prepared as follows: A plasmid encoding kit (DNA and encoded protein sequences shown below) was engineered using common polymerase chain reaction (PCR) methods. Complementary DNA cloned from various human tissues were purchased from Invitrogen, and these were used as substrates in the PCR reactions. Specific custom synthetic oligonucleotide primers were designed to initiate the PCR product, and also to provide the appropriate restriction enzyme cleavage sites for ligation with the plasmids. The entire sequence encoding the enzyme was made through a gene synthesis procedure, using custom synthetic oligonucleotides covering the entire coding sequence (Invitrogen, see below).

HGK = HGK (Homo sapiens, UniProt O95819); test: HGK (MAP4K4) biochemical assay (AlphaScreen); settings: under the test conditions employed; read-out: IC50 toward kinase HGK
Description: Substrate was 10 nM biotin-ERM (T567/T564/T558, Cell Signaling, Inc., cat#1344). MAP4K4 kinase was at 0.5 ng per sample. After incubation of the kinase reaction for 40 min at room temperature, 5 μl of donor beads and protein A acceptor beads (Perkin Elmer Life Science, cat#67606017) at final concentration 1 μg/ml in stop buffer (20 mM Tris, pH 7.4, 200 mM Nacl, 100 mM EDTA, 0.03% BSA) was added, along with Phospho-ERM Antibody (T567/T564/T558, Cell Signaling, Inc., cat#3141) at 1:1000 dilution. […] Phosphorylated substrate results in binding of the antibody which binds to protein A acceptor bead and association of the donor and acceptor beads is such that the signal correlates with kinase activity.

TrkA = target: T3, TrkA (Homo sapiens, UniProt P04629); test: TrkA biochemical assay (AlphaScreen); settings: under the test conditions employed; read-out: IC50 toward kinase TrkA
T3 construct: purchased Upstate Biotech 14-571
Description: Compounds tested were dissolved in DMSO (1 μL) and added to a white 384-well plate (Costar #3705). […] Each sample was at 5% DMSO. The plate was then incubated for 40 minutes at room temperature.

Kdr = Kdr (Homo sapiens, UniProt P35968); test: Kdr kinase activity assay; format: biochemical; settings: under the test conditions employed; read-out: IC50 toward kinase Kdr
Kdr, sequence (P35968 20-1356): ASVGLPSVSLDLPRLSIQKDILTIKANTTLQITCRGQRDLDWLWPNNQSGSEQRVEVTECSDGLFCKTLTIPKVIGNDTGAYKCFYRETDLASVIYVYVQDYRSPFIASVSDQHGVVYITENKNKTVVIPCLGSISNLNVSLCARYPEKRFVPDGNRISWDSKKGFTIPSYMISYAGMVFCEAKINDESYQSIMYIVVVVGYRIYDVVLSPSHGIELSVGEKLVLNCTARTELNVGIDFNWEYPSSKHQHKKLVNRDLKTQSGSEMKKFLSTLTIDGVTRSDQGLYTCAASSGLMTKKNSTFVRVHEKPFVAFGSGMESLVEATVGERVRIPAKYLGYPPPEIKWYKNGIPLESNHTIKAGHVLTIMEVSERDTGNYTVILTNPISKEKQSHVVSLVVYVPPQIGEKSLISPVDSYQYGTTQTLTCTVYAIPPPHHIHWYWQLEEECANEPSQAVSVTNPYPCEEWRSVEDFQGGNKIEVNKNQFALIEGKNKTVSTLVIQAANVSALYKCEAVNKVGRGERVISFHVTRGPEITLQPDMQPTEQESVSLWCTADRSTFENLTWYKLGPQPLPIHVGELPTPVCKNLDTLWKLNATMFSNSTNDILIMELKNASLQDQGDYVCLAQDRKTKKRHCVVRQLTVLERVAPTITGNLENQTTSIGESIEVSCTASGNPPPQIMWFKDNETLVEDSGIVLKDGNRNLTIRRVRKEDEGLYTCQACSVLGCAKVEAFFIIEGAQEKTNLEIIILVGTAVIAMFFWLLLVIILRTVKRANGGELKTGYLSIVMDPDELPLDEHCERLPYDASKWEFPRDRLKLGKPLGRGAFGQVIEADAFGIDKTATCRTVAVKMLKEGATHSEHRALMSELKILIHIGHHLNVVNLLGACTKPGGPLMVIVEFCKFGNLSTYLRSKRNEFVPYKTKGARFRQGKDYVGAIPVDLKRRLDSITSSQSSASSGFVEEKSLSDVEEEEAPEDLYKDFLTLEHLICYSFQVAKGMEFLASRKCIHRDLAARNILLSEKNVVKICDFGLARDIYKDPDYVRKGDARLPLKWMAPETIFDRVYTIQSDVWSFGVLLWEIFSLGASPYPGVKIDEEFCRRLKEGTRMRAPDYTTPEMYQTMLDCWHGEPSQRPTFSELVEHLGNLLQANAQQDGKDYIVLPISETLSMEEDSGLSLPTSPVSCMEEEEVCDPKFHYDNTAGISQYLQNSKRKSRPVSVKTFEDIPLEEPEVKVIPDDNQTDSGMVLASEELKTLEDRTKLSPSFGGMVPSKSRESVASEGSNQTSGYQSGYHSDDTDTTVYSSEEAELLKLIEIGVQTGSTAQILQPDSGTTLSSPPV

T3 sequence (P04629 33-796): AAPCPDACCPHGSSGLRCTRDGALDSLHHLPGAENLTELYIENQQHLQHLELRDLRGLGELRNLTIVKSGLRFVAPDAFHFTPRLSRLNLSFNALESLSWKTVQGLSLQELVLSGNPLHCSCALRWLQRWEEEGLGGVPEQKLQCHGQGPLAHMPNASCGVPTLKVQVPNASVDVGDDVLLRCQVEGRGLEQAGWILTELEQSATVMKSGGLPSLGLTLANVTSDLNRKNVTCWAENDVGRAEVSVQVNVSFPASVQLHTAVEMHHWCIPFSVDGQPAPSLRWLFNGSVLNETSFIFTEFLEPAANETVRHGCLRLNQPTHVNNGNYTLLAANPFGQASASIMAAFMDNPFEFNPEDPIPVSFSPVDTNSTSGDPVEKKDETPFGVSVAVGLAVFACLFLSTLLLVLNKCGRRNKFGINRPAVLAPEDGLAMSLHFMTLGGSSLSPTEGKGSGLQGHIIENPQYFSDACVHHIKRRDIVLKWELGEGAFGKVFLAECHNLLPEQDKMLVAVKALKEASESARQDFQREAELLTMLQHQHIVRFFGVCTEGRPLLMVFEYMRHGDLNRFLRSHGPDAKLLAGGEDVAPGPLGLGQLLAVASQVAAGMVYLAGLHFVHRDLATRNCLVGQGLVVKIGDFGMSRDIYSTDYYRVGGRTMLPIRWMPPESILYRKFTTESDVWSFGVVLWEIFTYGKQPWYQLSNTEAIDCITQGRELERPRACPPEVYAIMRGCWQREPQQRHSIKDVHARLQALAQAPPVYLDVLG
B-Raf V600E, sequence (P15056 whole entry V600E): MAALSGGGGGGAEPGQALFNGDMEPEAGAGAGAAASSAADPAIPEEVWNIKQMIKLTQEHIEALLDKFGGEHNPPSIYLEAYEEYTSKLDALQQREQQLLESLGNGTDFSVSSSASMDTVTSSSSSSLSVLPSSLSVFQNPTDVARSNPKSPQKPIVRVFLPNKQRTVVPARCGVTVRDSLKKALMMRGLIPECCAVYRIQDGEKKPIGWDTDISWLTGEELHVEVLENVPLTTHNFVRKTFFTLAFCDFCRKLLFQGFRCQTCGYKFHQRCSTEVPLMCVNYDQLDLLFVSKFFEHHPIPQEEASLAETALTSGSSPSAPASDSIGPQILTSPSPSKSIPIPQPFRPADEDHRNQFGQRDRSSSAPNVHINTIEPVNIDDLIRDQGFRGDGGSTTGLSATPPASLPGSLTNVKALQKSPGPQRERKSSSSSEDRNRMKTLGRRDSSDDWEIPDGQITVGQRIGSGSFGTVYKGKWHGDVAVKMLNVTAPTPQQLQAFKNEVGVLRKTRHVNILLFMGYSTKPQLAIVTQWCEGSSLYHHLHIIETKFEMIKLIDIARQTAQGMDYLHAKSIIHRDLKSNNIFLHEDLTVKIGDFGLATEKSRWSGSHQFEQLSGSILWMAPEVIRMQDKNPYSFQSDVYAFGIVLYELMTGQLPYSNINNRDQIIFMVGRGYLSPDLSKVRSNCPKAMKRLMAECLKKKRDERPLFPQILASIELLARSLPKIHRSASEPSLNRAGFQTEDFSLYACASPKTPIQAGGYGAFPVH
T1 sequence (P07333 20-972): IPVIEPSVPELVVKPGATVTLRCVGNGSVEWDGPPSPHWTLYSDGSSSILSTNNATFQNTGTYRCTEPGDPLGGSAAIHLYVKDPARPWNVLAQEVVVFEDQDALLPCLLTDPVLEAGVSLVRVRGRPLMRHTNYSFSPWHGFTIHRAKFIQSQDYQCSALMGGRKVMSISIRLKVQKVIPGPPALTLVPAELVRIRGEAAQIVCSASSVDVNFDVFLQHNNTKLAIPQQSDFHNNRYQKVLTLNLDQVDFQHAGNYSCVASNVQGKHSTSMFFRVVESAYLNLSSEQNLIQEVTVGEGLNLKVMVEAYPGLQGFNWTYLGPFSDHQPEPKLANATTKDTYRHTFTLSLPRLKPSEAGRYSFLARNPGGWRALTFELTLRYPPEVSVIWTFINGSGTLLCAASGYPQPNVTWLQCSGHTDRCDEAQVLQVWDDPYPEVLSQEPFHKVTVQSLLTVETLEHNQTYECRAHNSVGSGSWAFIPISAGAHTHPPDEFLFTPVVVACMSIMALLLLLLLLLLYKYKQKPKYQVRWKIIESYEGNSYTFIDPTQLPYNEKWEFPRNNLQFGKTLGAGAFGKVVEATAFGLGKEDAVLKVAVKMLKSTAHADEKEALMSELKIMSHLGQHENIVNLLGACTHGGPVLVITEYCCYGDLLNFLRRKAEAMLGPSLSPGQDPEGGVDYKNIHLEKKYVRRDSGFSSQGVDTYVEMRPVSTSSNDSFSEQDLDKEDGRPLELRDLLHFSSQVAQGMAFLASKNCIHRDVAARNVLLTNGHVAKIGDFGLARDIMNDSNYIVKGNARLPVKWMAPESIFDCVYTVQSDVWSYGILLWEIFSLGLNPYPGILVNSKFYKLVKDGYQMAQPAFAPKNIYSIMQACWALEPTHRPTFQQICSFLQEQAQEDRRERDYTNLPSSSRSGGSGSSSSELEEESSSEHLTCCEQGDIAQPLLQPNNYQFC
T2 sequence (P10721 552-948): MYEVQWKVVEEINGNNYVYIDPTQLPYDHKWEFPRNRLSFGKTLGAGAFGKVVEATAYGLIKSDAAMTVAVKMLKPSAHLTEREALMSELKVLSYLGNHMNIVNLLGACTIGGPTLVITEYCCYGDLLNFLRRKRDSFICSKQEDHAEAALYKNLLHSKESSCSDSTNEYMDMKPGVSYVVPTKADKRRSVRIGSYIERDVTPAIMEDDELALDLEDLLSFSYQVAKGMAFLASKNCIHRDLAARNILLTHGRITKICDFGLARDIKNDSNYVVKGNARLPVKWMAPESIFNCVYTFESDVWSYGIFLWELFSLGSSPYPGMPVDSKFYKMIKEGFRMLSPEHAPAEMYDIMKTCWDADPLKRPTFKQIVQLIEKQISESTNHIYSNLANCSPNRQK

IC50 (B-Raf V600E) [µM]	IC50 (Fms) [µM]	IC50 (Kit) [µM]	IC50 (HGK) [µM]	IC50 (TrkA) [µM]	IC50 (Kdr) [µM]	Compound
≤ 10	≤ 10	≤ 10				COc1cc(Cc2c[nH]c3ncccc23)cc(F)c1OCc1ccc(Cl)cc1 [P-1466, 3-[4-(4-Chloro-benzyloxy)-3-fluoro-5-methoxy-benzyl]-1H-pyrrolo[2,3-b]pyridine]
≤ 10	≤ 10	≤ 10				CCOc1cc(Cc2c[nH]c3ncccc23)ccc1OCc1ccc(Cl)cc1 [P-1470, 3-[4-(4-Chloro-benzyloxy)-3-ethoxy-benzyl]-1H-pyrrolo[2,3-b]pyridine]
≤ 10	≤ 10	≤ 10				Clc1ccc(COc2ccc(Cc3c[nH]c4ncccc34)c(Cl)c2)cc1 [P-1471, 3-[2-Chloro-4-(4-chloro-benzyloxy)-benzyl]-1H-pyrrolo[2,3-b]pyridine]
≤ 10		≤ 10				COc1cc(Cc2c[nH]c3ncccc23)ccc1OCc1c(F)cc(F)cc1F [P-1578, 3-[3-Methoxy-4-(2,4,6-trifluoro-benzyloxy)-benzyl]-1H-pyrrolo[2,3-b]pyridine]
≤ 10						COc1cc(Cc2c[nH]c3ncccc23)ccc1OCc1c(Cl)cccc1Cl [P-1579, 3-[4-(2,6-Dichloro-benzyloxy)-3-methoxy-benzyl]-1H-pyrrolo[2,3-b]pyridine]
≤ 10						COc1cc(C(=O)c2c[nH]c3ncccc23)ccc1OCc1ccc(Cl)cc1 [P-1698, [4-(4-Chloro-benzyloxy)-3-methoxy-phenyl]-(1H-pyrrolo[2,3-b]pyridin-3-yl)-methanone]
≤ 10						FC(F)(F)c1ccc(COc2ccc(Cc3c[nH]c4ncccc34)cc2C(F)(F)F)cc1 [P-1797, 3-[3-Trifluoromethyl-4-(4-trifluoromethyl-benzyloxy)-benzyl]-1H-pyrrolo[2,3-b]pyridine]
	≤ 10		≤ 10	≤ 10		Fc1cc(Cc2c[nH]c3ncc(Cl)cc23)c(Cl)cc1OCc1nc2ccccc2[nH]1 [P-2099, 2-[5-Chloro-4-(5-chloro-1H-pyrrolo[2,3-b]pyridin-3-ylmethyl)-2-fluoro-phenoxymethyl]-1H-benzoimidazole]
	≤ 10		≤ 10	≤ 10		COc1cc(Cc2c[nH]c3ncccc23)c(Cl)cc1OCc1nc2ccccc2[nH]1 [P-2103, 2-[5-Chloro-2-methoxy-4-(1H-pyrrolo[2,3-b]pyridin-3-ylmethyl)-phenoxymethyl]-1H-benzoimidazole]
	≤ 10		≤ 10	≤ 10		COc1cc(Cc2c[nH]c3ncc(Cl)cc23)c(Cl)cc1OCc1nc2ccccc2[nH]1 [P-2104, 2-[5-Chloro-4-(5-chloro-1H-pyrrolo[2,3-b]pyridin-3-ylmethyl)-2-methoxy-phenoxymethyl]-1H-benzoimidazole]
	≤ 10	≤ 10	≤ 10	≤ 10		COc1cc(Cc2c[nH]c3ncc(Cl)cc23)c(F)cc1OCc1nc2ccccc2n1C [P-2106, 2-[4-(5-Chloro-1H-pyrrolo[2,3-b]pyridin-3-ylmethyl)-5-fluoro-2-methoxy-phenoxymethyl]-1-methyl-1H-benzoimidazole]
	≤ 10	≤ 10	≤ 10	≤ 10		COc1cc(Cc2c[nH]c3ncc(Cl)cc23)c(F)cc1OC(C)c1nc2ccccc2[nH]1 (stereo not shown) [P-2110, 2-{1-[4-(5-Chloro-1H-pyrrolo[2,3-b]pyridin-3-ylmethyl)-5-fluoro-2-methoxy-phenoxy]-ethyl}-1H-benzoimidazole]
	≤ 10	≤ 10	≤ 10	≤ 10		COc1cc(Cc2c[nH]c3ncc(Cl)cc23)c(F)cc1OCc1nc2cc(Cl)ccc2[nH]1 [P-2111, 6-Chloro-2-[4-(5-chloro-1H-pyrrolo[2,3-b]pyridin-3-ylmethyl)-5-fluoro-2-methoxy-phenoxymethyl]-1H-benzoimidazole]
	≤ 10	≤ 10	≤ 10	≤ 10		COc1cc(Cc2c[nH]c3ncccc23)c(F)cc1OCc1nc2ccc(Cl)cc2[nH]1 [P-2112, 6-Chloro-2-[5-fluoro-2-methoxy-4-(1H-pyrrolo[2,3-b]pyridin-3-ylmethyl)-phenoxymethyl]-1H-benzoimidazole]
	≤ 10		≤ 10	≤ 10		COc1cc(Cc2c[nH]c3ncc(F)cc23)c(F)cc1OCc1nc2ccccc2[nH]1 [P-2115, 2-[5-Fluoro-4-(5-fluoro-1H-pyrrolo[2,3-b]pyridin-3-ylmethyl)-2-methoxy-phenoxymethyl]-1H-benzoimidazole]
	≤ 10		≤ 10	≤ 10		COc1cnc2[nH]cc(Cc3cc(Cl)c(OCc4nc5ccccc5[nH]4)cc3F)c2c1 [P-2116, 2-[2-Chloro-5-fluoro-4-(5-methoxy-1H-pyrrolo[2,3-b]pyridin-3-ylmethyl)-phenoxymethyl]-1H-benzoimidazole]
	≤ 10				≤ 10	COc1cnc2[nH]cc(Cc3c(F)ccc(OCC(F)(F)F)c3Cl)c2c1 [P-2147, 3-[2-Chloro-6-fluoro-3-(2,2,2-trifluoro-ethoxy)-benzyl]-5-methoxy-1H-pyrrolo[2,3-b]pyridine]
	≤ 10				≤ 10	O=C(c1c(F)ccc(OCC(F)(F)F)c1Cl)c1c[nH]c2ncccc12 [P-2150, [2-Chloro-6-fluoro-3-(2,2,2-trifluoro-ethoxy)-phenyl]-(1H-pyrrolo[2,3-b]pyridin-3-yl)-methanone]
	≤ 10				≤ 10	COc1cnc2[nH]cc(Cc3c(Cl)ccc(OCC(F)(F)F)c3Cl)c2c1 [P-2153, 3-[2,6-Dichloro-3-(2,2,2-trifluoro-ethoxy)-benzyl]-5-methoxy-1H-pyrrolo[2,3-b]pyridine]
	≤ 10		≤ 10	≤ 10		COc1cc(Cc2c[nH]c3ncc(C#N)cc23)c(F)cc1OCc1nc2ccccc2[nH]1 [P-2171, 3-[4-(1H-Benzoimidazol-2-ylmethoxy)-2-fluoro-5-methoxy-benzyl]-1H-pyrrolo[2,3-b]pyridine-5-carbonitrile]
	≤ 10	≤ 10	≤ 10	≤ 10		COc1cc(Cc2c[nH]c3ncc(Cl)cc23)c(F)cc1OCc1nc2cc(Cl)c(Cl)cc2[nH]1 [P-2172, 5,6-Dichloro-2-[4-(5-chloro-1H-pyrrolo[2,3-b]pyridin-3-ylmethyl)-5-fluoro-2-methoxy-phenoxymethyl]-1H-benzoimidazole]
	≤ 10	≤ 10	≤ 10	≤ 10		COC(=O)c1cnc2[nH]cc(Cc3cc(OC)c(OCc4nc5ccccc5[nH]4)cc3F)c2c1 [P-2174, 3-[4-(1H-Benzimidazol-2-ylmethoxy)-2-fluoro-5-methoxy-benzyl]-1H-pyrrolo[2,3-b]pyridine-5-carboxylic acid methyl ester]
	≤ 10		≤ 10	≤ 10		COc1cc(Cc2c[nH]c3ncc(C(=O)O)cc23)c(F)cc1OCc1nc2ccccc2[nH]1 [P-2175, 3-[4-(1H-Benzoimidazol-2-ylmethoxy)-2-fluoro-5-methoxy-benzyl]-1H-pyrrolo[2,3-b]pyridine-5-carboxylic acid]
	≤ 10	≤ 10	≤ 10	≤ 10		COc1cc(Cc2c[nH]c3ncc(Cl)cc23)c(F)cc1OCc1nc2cc(C(F)(F)F)ccc2[nH]1 [P-2178, 2-[4-(5-Chloro-1H-pyrrolo[2,3-b]pyridin-3-ylmethyl)-5-fluoro-2-methoxy-phenoxymethyl]-5-trifluoromethyl-1H-benzoimidazole]
	≤ 10	≤ 10	≤ 10	≤ 10		COc1cc(Cc2c[nH]c3ncc(Cl)cc23)c(F)cc1OCCc1nc2ccccc2[nH]1 [P-2180, 2-{2-[4-(5-Chloro-1H-pyrrolo[2,3-b]pyridin-3-ylmethyl)-5-fluoro-2-methoxy-phenoxy]-ethyl}-1H-benzoimidazole]
	≤ 10		≤ 10	≤ 10		COc1ccc2[nH]c(COc3cc(F)c(Cc4c[nH]c5ncc(Cl)cc45)cc3OC)nc2c1 [P-2182, 2-[4-(5-Chloro-1H-pyrrolo[2,3-b]pyridin-3-ylmethyl)-5-fluoro-2-methoxy-phenoxymethyl]-5-methoxy-1H-benzoimidazole]
